Experimental data taken from US12472193B2, “Methods and compositions for treating and preventing respiratory related diseases and conditions with xylitol-headgroup lipid analogs” (National Jewish Health, priority 2017, dated 2025).
Entries after “also recorded” stand apart in the source; their conditions may differ.

Biological target: T1, TLR 4 (Mus musculus, UniProt Q9JHF9+Q9QUK6)
T1 construct: endogenous in cells; host or cells: RAW264.7 (ATCC)
T1 sequence (Q9QUK6 26-835): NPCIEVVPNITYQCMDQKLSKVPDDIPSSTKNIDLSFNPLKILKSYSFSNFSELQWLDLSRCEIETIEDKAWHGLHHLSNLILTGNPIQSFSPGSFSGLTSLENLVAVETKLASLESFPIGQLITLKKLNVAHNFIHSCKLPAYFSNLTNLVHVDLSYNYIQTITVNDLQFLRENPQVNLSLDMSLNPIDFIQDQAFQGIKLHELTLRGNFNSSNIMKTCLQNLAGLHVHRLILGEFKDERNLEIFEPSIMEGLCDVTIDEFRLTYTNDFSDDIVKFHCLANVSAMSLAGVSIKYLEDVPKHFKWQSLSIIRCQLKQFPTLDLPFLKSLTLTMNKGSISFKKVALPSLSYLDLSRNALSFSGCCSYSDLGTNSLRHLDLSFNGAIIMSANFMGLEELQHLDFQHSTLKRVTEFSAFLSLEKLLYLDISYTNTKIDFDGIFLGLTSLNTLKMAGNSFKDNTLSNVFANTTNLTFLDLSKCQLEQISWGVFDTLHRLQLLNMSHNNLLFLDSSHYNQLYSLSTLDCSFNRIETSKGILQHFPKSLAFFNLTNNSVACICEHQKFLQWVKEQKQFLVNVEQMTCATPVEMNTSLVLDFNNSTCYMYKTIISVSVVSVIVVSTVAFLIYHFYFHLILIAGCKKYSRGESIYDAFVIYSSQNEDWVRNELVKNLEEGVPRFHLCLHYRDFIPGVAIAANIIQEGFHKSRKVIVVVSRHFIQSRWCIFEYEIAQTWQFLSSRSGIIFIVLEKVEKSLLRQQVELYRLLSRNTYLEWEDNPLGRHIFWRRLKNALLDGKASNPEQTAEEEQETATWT
T1 sequence (Q9JHF9 19-160): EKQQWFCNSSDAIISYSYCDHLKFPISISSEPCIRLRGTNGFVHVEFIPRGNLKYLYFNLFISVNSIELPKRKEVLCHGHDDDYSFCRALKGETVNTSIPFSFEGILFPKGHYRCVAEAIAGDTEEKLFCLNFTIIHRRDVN
Assay: LPS-induced TNF-α secretion by RAW264.7 cells (TLR 4 antagonism)
Format: cell-based
Settings: for antagonism of TLR 4 activation (TNFα secretion): 10 ng/mL LPS, 50 μg/mL lipid; for antagonism of TLR 4 activation (TNFα secretion) / IC50 / IC50 values (inhibition of TNFα release): 4 hours; for IC50 / IC50 values (inhibition of TNFα release): RAW264.7, 10 ng/mL LPS, lipid 100 to 0.008 μg/mL; for IC50: read-out: IC50 values (inhibition of TNFα release) (converted); for potency as TLR 4 antagonist compared to POPG: from dose response curves
Method: The mouse macrophage cell line, RAW264.7, was obtained from ATCC and maintained in DMEM, supplemented with 10% bovine growth serum and 1× penicillin streptomycin. Cells were maintained at 37° C. with 5% carbon dioxide: 95% air atmosphere within the incubator. Experiments were completed in a 96-well plate where cells were seated at a density of 1×10^5 cells per well, 24 prior to stimulation with TLR agonists and antagonists. Lipids were dried under a stream of nitrogen, hydrated with phosphate-buffered saline (PBS) at 37° C. for one hour, followed by water bath sonication to create liposomes. Each condition for cell stimulation and antagonism was prepared in DMEM in a separate tube and consisted of: control, TLR agonist, TLR agonist+lipid, and lipid alone. 100 μL aliquots of medium+agonists+antagonists were added to each well and incubated at 37° C. for 4 hours. Subsequently, the media were collected, diluted and an enzyme-linked immunosorbent assay (ELISA) was performed to quantify TNFα release by cells.
The additional experiments disclosed herein, tested the initial activity of multiple POPG analogs. […] However, it was unknown how the combination of a xylitol head group along with varying hydrophobic chains affects this activity and mechanism of suppression. Varying the hydrophobic chains provides an approach for optimization of a PX lipid for maximum efficacy and uncovers important structure/function relationships. To test antagonist activity of PX lipids for preventing the activation of TLR 4, LPS was added to RAW264.7 cells at 10 ng/mL in the absence or presence of 50 μg/mL of lipid and incubated for 4 hours. After incubation, media were collected and secretion of the proinflammatory cytokine, TNFα, was quantified by ELISA as a downstream consequence of TLR 4 activation. Eight xylitol lipid analogs suppressed the activation of TLR 4 in the presence of LPS stimulus. […] Although inhibition of TLR 4 by DSPX was statistically different from LPS alone, its antagonism was marginal. DSPX is also a saturated lipid and the hydrophobic chains are 18 carbons in length. […] In these studies none of the lipids alone elicited significant amounts of proinflammatory cytokine release.
For quantitative comparisons between POPG analogs and POPG, concentration-dependent inhibition studies were performed and IC50 values were determined. RAW264.7 cells were stimulated with 10 ng/mL of LPS in combination with concentrations of lipid from 100 μg/mL to 0.008 μg/mL. Cells were stimulated for 4 hours followed by collection of media and quantification of TNFα released into the medium.

CCCCCCCCCCCCCCOC[C@H](COP(=O)(O)OCC(O)C(O)C(O)CO)OCCCCCCCCCCCCCC (mixture of isomers) [14:0 DEPX, sn-1-O-myristyl, sn-2-O-myristyl sn-3 glycerol phosphoxylitol]
antagonism of TLR 4 activation (TNFα secretion): effective antagonists
IC50: 4.08 µM

CCCCCCC=CCCCCCCCC(=O)OCC(COP(=O)(O)OCC(O)C(O)C(O)CO)OC(=O)CCCCCCCC=CCCCCCC (mixture of isomers) [16:1 DPPX, sn-1-palmitoleoyl, sn-2-palmitoleoyl sn-3 glycerol phosphoxylitol]
IC50 values (inhibition of TNFα release): 1 µg/mL

CCCCCCCCC=CCCCCCCCCOCC(COP(=O)(O)OCC(O)C(O)C(O)CO)OCCCCCCCCC=CCCCCCCCC (mixture of isomers) [18:1 DEPX, sn-1-O-octadecenyl, sn-2-O-octadecenyl sn-3 glycerol phosphoxylitol]
antagonism of TLR 4 activation (TNFα secretion): effective antagonists; also recorded: inhibit
IC50 values (inhibition of TNFα release): 0.33 µg/mL
potency as TLR 4 antagonist compared to POPG: more potent antagonists of TLR 4 activation than POPG

CCCCCC=CCC=CCCCCCCCC(=O)OCC(COP(=O)(O)OCC(O)C(O)C(O)CO)OC(=O)CCCCCCCC=CCC=CCCCCC (mixture of isomers) [18:2 DLPX, sn-1-linoleoyl, sn-2-linoleoyl sn-3 glycerol phosphoxylitol]
IC50 values (inhibition of TNFα release): 0.28 µg/mL
potency as TLR 4 antagonist compared to POPG: more potent antagonists of TLR 4 activation than POPG

CCCCCCCCCCCCCC(=O)OC[C@H](COP(=O)(O)OCC(O)C(O)C(O)CO)OC(=O)CCCCCCCCCCCCC (mixture of isomers) [DMPX, sn-1-myristoyl, sn-2-myristoyl sn-3 glycerol phosphoxylitol]
antagonism of TLR 4 activation (TNFα secretion): strong antagonistic activity
IC50: 33 µM

CCCCCCCCC=CCCCCCCCC(=O)OCC(COP(=O)(O)OCC(O)C(O)C(O)CO)OC(=O)CCCCCCCC=CCCCCCCCC (mixture of isomers) [DOPX, sn-1-oleoyl, sn-2-oleoyl sn-3 glycerol phosphoxylitol]
antagonism of TLR 4 activation (TNFα secretion): inhibit
IC50 values (inhibition of TNFα release): 0.36 µg/mL
potency as TLR 4 antagonist compared to POPG: more potent antagonists of TLR 4 activation than POPG

CCCCCCCCCCCCCCCC(=O)OCC(COP(=O)(O)OCC(O)C(O)C(O)CO)OC(=O)CCCCCCCCCCCCCCC (stereo not drawn) [DPPX, sn-1-palmitoyl, sn-2-palmitoyl sn-3 glycerol phosphoxylitol]
antagonism of TLR 4 activation (TNFα secretion): ineffective as an antagonist
IC50 values (inhibition of TNFα release): could not be determined

CCCCCCCCCCCCCCCCCC(=O)OCC(COP(=O)(O)OCC(O)C(O)C(O)CO)OC(=O)CCCCCCCCCCCCCCCCC (stereo not drawn) [DSPX, sn-1-stearoyl, sn-2-stearoyl sn-3 glycerol phosphoxylitol]
antagonism of TLR 4 activation (TNFα secretion): marginal
IC50 values (inhibition of TNFα release): could not be determined

CCCCCCCC/C=C\CCCCCCCC(=O)O[C@H](COC(=O)CCCCCCCCCCCCCCC)COP(=O)([O-])OCC[N+](C)(C)C [POPC, 1-palmitoyl-2-oleoyl-sn-glycero-3-phosphocholine, reference compound]
antagonism of TLR 4 activation (TNFα secretion): does not significantly alter the activation of TLR4
IC50 values (inhibition of TNFα release): could not be determined

CCCCCCCC/C=C\CCCCCCCC(=O)O[C@H](COC(=O)CCCCCCCCCCCCCCC)COP(=O)(O)OCC(O)CO (stereo partly drawn) [POPG, palmitoyl-oleoyl-phosphatidylglycerol, reference compound]
antagonism of TLR 4 activation (TNFα secretion): inhibits activation of TLR4
IC50 values (inhibition of TNFα release): 3.33 µg/mL
inhibitory concentration reducing TNF-α production by 50% (IC50), as shown in FIG. 3 (RAW264.7, 10 ng/ml LPS): ~2 µg/mL

CCCCCCCC/C=C\CCCCCCCC(=O)O[C@H](COC(=O)CCCCCCCCCCCCCCC)COP(=O)(O)OCC(O)C(O)C(O)CO (stereo partly drawn) [POPX, sn-1-palmitoyl, sn-2-oleoyly sn-3 glycerol phosphoxylitol]
IC50 values (inhibition of TNFα release): 0.52 µg/mL
potency as TLR 4 antagonist compared to POPG: more potent antagonists of TLR 4 activation than POPG
